Patent publication US7422854B1, “Cholesterol reduction signature” (priority 2002, dated 2008)

Columns and labels:
[1] = test system: male Sprague-Dawley rats; experiment: Cholesterol Lowering Index: total blood cholesterol (clinical chemistry) in treated versus vehicle-treated rats; format: in vivo, rat; conditions: male rats; for Cholesterol Index (fold reduction): Table 4; for Chol index (fold reduction): vs vehicle
Description: Compound dosing was based on the acute dose LD50s recorded in published reference or literature sources. […] The MTD (maximum tolerated dose) was then selected as the dose at which the animals […] 5-10% body weight during the 5-day range finding study. […] In addition, the clinical observations must show no or mild clinical signs during the whole of the range-finding study. At the next highest dose, signs and symptoms of adverse effects and exceeding those of the MTD should be seen to occur. Should these criteria not be met, the range-finding study is repeated using a modified dose range.
(§1) After determination of the MTD and FED for a compound, each compound was dissolved in a vehicle for administration on day 1 of the study (additional daily doses were stored as frozen aliquots from this initial formulation). Each compound was administered to three individual male Sprague-Dawley rats for each of the two doses (MTD and FED) for one of four different times (0.25 day, 1 day, 3 days, and 5 days), yielding a total of up to 24 animals per compound study. Vehicle choice was based on solubility of the compound, effect of food on adsorption, and the vehicles used in the literature reports examined during the FED selection investigations, described above. Generally, the route and vehicle in which the FED was defined are used. When there was a choice of routes and vehicles, oral routes were chosen over injection routes. Many compounds, especially oncolytics, are only administerable intravenously. In such cases, the compound was administered as an intravenous formulation into the tail vein. Orally administered compounds were given dissolved in either water, 1% carboxymethycellulose (CMC) or corn oil. Intravenously and intraperitoneally administered compounds were given in 0.9% saline. Subcutaneously administered compounds were given in corn oil. Animal body weights were determined at 1 day and, where appropriate, at 4 days, before necropsy, and clinical observations were made on a daily basis. Control animals were dosed with vehicle only. Three male animals were used for each dose and time combination used for the compound treatment.
(§2) Tissue harvest and handling: After the allocated treatment time, the tissues from the animals were harvested. […] All the tissues collected were divided to provide samples for histopathological analyses, and the remainder of each tissue was then snap-frozen. […] The following blood constituents were measured: Blood Urea Nitrogen (BUN), Creatinine (CRE), Glucose (GLU), Alanine Transaminase (ALT), Aspartate Aminotrans-ferase (AST), Alkaline Phosphatase (ALP), Total Bilirubin (TBI), Sodium (SOD), Potassium (POT), Chloride (CHL), Phosphorus (PHO), Total Protein (TPR), Albumin (ALB), Cholesterol (CHO), Creatine Phosphokinase (CPK), Lactate Dehydrogenase (LDH), Carbon Dioxide (CO2), Uric Acid (UA), and Lipase. […] The parameters were measured using a Baker 9000 blood cell analysis instrument according to the manufactures instructions. The following blood constituents were measured: Leukocyte count (WBC), Differential Leukocyte counts, Erythrocyte count (RBC), Hemoglobin concentration (HGB), Hematocrit (HCT), Mean Corpuscular Volume (MCV), Mean Corpuscular Hemoglobin (MCH), Mean Corpuscular Hemoglobin Concentration (MCC), Thrombocyte Count (PLC). Histopathology: Histopathological analyses of hematoxylin and eosin-stained tissue sections were performed and peer-reviewed by board-certified (Diplomate, American College of Veterinary Pathologists) veterinary pathologists. Preparation of Enriched mRNA: Punch Biopsies were Taken from the Frozen Tissues and were completely homogenized before being processed using the MagNA Pure robot. (Roche Diagnostics Corp., Indianapolis, Ind.) in combination with the MagNA Pure LC RNA Isolation kit II (Roche Diagnostics Corp).

[2] = test system: livers of rats; experiment: Signature Projection Score (SPS): match of liver gene expression to the Cholesterol Reduction Signature; format: in vivo; conditions: rat liver, maximum of training treatments = 100
Protocol: as §1
as §2, with “Corp). The amount of lysis buffer was adjusted to allow 1 ml per 50 mg for liver tissue, or 1 ml per 80 mg for all other tissues. After complete homogenization and before loading of the samples into the 32-well MagNA Pure plate, the samples were syringed 5-6 times using a 20-gauge 3-ml syringe to ensure a smooth solution for robotic processing. Tissue sample processing was performed in duplicate wells (loading 150 μl of homogenized sample and 150 μl of additional lysis buffere to each well) of the MagNA Pure LC, which is programmed to extract mRNA using oligo-dT selection technology into a final elution volume of 100 μl. Poly A(+) RNA sample concentration was performed using a standard ethanol precipitation protocol in the presence of glycogen (50 μg/ml).” for “Corp).”

[3] = test system: rat; conditions: cited from earlier work

With `C#C[C@]1(O)CC[C@H]2[C@@H]3CCc4cc(O)ccc4[C@H]3CC[C@@]21C` [ETHINYLESTRADIOL, (17α)-norpregna-1,3,5(10)-trien-20-yne-3,17-diol] the “Cholesterol Index (fold reduction)” value ([1]; dose 10, time point 5 days) was 3.9 fold reduction, the “Chol index (fold reduction)” value ([1]; dose 10, time 3 days) was 3.65 fold reduction and the “Chol index (fold reduction)” value ([1]; dose 10, time 5 days) was 4.09 fold reduction. The SPS ([2]; dose 10 (mg/ml), time point 1 day) was 50, the SPS ([2]; dose 10 (mg/ml), time point 5 days) was 76.2 and the “reduction in total cholesterol” value ([3]; rat, 4-7 daily dosing) was 89%.

For `C#C[C@]1(OC(C)=O)CC[C@H]2[C@@H]3CCC4=CC(=O)CC[C@@H]4[C@H]3CC[C@@]21C` [NORETHINDRONE ACETATE], the “Cholesterol Index (fold reduction)” value ([1]; dose 125, time point 3 days) was 2.0 fold reduction, the “Cholesterol Index (fold reduction)” value ([1]; dose 125, time point 5 days) was 4.0 fold reduction and the “Chol index (fold reduction)” value ([1]; dose 125, time 5 days) was 4.07 fold reduction. The SPS ([2]; dose 125 (mg/ml), time point 1 day) was 58.8, the SPS ([2]; dose 125 (mg/ml), time point 3 days) was 81.6 and the SPS ([2]; dose 125 (mg/ml), time point 5 days) was 80.7.

In the case of `O=C(c1ccc(OCCN2CCCCC2)cc1)c1c(-c2ccc(O)cc2)sc2cc(O)ccc12` [RALOXIFENE, [6-hydroxy-2-(4-hydroxyphenyl)-3-(4-[2-piperidin-1-yl)ethoxy]benzoyl)-benzo[b]thiene], the “Chol index (fold reduction)” value ([1]; dose 6.5, time 5 days) is given as 2.61 fold reduction and the effect on cholesterol ([3]; ovarectomized female rats) is given as “lower cholesterol”.
